Test results from patent US20050209157A1, “Short bioactive peptides and methods for their use” (priority 2001, published 2005).
“And” between values parts separate entries of the source, which are not always exact repeats. Equal values may be shown once. Read-outs that look alike come from different tables or passages of the source. No end group written: not given here.

Experiments:
[1] = tested on: Pseudomonas aeruginosa 105663; assay type: cell-based; conditions: Table 9; in µg/mL
[2] = tested on: Pseudomonas aeruginosa 100609; assay type: cell-based; conditions: Table 9; in µg/mL
[3] = tested on: Candida glabrata ATCC15126; assay: Antimicrobial assays II, NCCLS broth microdilution MIC; assay type: cell-based; conditions: Table 8; in µg/mL
P. aeruginosa H374 [4] = assay type: cell-based, Pseudomonas aeruginosa; conditions: for MIC P. aeruginosa H374: Table 9, in µg/mL
[5] = tested on: Pseudomonas aeruginosa H187; assay type: cell-based; conditions: in µg/mL
S. aureus (MRSA) = assay type: cell-based, Staphylococcus aureus; conditions: mean of three; 16 to 20 hours at 35° C.
S. epidermidis C621 = assay type: cell-based, Staphylococcus epidermidis; conditions: mean of three; 16 to 20 hours at 35° C.
S. pyogenes ATCC19615 = assay: Antimicrobial assays II, NCCLS broth microdilution MIC; assay type: cell-based, Streptococcus pyogenes; conditions: mean of three, in µg/mL
S. pyogenes M76 = assay: as above; assay type: cell-based, Streptococcus pyogenes; conditions: mean of three; 16 to 20 hours at 35° C.
PC3 = assay: Anti-cancer assay, MTT, LD50; assay type: cell-based; conditions: 24 hours with peptide, prostate adenocarcinoma
From the text: (§1) Numbers are LD50 values (μg/mL).

SW480 = assay: Anti-cancer assay, MTT, LD50; assay type: cell-based; conditions: SW480 colon adenocarcinoma line, 24 hours with peptide
From the text: as §1

BMKC = assay: Anti-cancer assay, MTT, LD50; assay type: cell-based; conditions: BMKC cloned melanoma line, 24 hours with peptide
From the text: as §1

MCF7 = assay: Anti-cancer assay, MTT, LD50; assay type: cell-based; conditions: MCF7 breast adenocarcinoma line, MTT, 24 hours with peptide
From the text: as §1

H1299 = assay: Anti-cancer assay, MTT, LD50; assay type: cell-based; conditions: 24 hours with peptide, lung large cell carcinoma
From the text: as §1

[6] = tested on: Pseudomonas aeruginosa ATCC 9027; assay: Antimicrobial assay I, MIC by OD measurement; assay type: cell-based; conditions: 37° C. for 24 hours, absorbance 620 nm
[7] = tested on: Staphylococcus aureus ATCC 6538; assay: Antimicrobial assay I, MIC by OD measurement; assay type: cell-based; conditions: 37° C. for 24 hours, absorbance 620 nm
[8] = tested on: yeast (Saccharomyces cerevisiae); assay: Antimicrobial assay I, yeast assay in RPMI 1640; assay type: cell-based; conditions: RPMI 1640 media
WI38 = conditions: MTT, 24 hours with peptide; normal fibroblast line
P. aeruginosa H374 [9] = assay type: cell-based, Pseudomonas aeruginosa; conditions: for MIC Cm-comb.: MIC of chloramphenicol with peptide at ¼ MIC; for MIC Nal-comb.: MIC of nalidixic acid with peptide at ¼ MIC; for FIC Index: 0.5 or less = synergy
Outline: (§2)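 FIC index, computed as 0.25 plus the ratio of combination to single-agent antibiotic MIC, defines synergy when 0.5 or below. Peptide fixed at one quarter MIC while chloramphenicol or nalidixic acid was serially diluted two-fold; antibiotic-alone MICs served as baselines.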

P. aeruginosa = assay type: cell-based, Pseudomonas aeruginosa; conditions: P. aeruginosa H744; MIC of nalidixic acid with peptide at ¼ MIC
Outline: as §2

P. aeruginosa H774 = assay type: cell-based, Pseudomonas aeruginosa; conditions: P. aeruginosa H744; nalidixic acid + peptide at ¼ MIC; 0.5 or less = synergy
Outline: as §2

S. pneumoniae C718 = assay: Antimicrobial assays II, NCCLS broth microdilution MIC; assay type: cell-based, Streptococcus pneumoniae; conditions: mean of three
in vitro [10] = assay type: cell-based, human; conditions: human, human red blood cells, pH 7, hemolytic assay, concentration at 50% hemolysis, 1 hour at 37° C.; read-out: LD50
in vitro [11] = conditions: human, WI38 normal lung fibroblast cells, LD50 WI38, WI38 normal lung fibroblast line, MTT, 24 hours with peptide
S. pneumoniae C719 = assay: Antimicrobial assays II, NCCLS broth microdilution MIC; assay type: cell-based, Streptococcus pneumoniae; conditions: mean of three, in µg/mL
HeLaS3 = assay: Anti-cancer assay, MTT, LD50; assay type: cell-based; conditions: 24 hours with peptide, cervical carcinoma
From the text: as §1

E. coli UB1005 = assay type: cell-based, Escherichia coli; conditions: mean of three; 16 to 20 hours at 35° C.; in µg/mL
S. typhimurium 14028S = assay type: cell-based, Salmonella typhimurium; conditions: mean of three; 16 to 20 hours at 35° C.; in µg/mL
[12] = chloramphenicol + peptide at ¼ MIC
[13] = nalidixic acid + peptide at ¼ MIC, FIC=0.25+MIC comb/MIC alone

Row | Compound | MIC P. aeruginosa Tb 105663 [1] | MIC P. aeruginosa Tb 100609 [2] | MIC C. glabrata ATCC15126 [3] | MIC P. aeruginosa H374 (P. aeruginosa H374 [4]) | MIC P. aeruginosa H187 ([5]; Table 8) | MIC P. aeruginosa H187 ([5]; Table 9) | S. aureus (MRSA) MIC (S. aureus (MRSA)) | S. epidermidis C621 MIC (S. epidermidis C621) | S. pyogenes MIC (S. pyogenes ATCC19615) | S. pyogenes M76 MIC (S. pyogenes M76) | PC3 LD50 (PC3) | LD50 SW480 (SW480) | LD50 BMKC (BMKC) | LD50 MCF7 (MCF7) | H1299 LD50 (H1299) | paerug9027 (MIC) [6] | staph6538 (MIC) [7] | S. pneumoniae MIC (S. pneumoniae C718) | HC50 at 1 h (in vitro [10]) | S. pneumoniae MIC (S. pneumoniae C719) | other results
1 | MPKWKVFKKIEKVGRNIRNGIVKAGPAIAVLGEAKALG-NH2 [P12 (5)] | 8 | 8 | 128 | 8 | 16 | 16 | – | – | – | – | – | – | – | – | – | – | – | – | – | – | –
2 | FAKLLAKLAKKL-NH2 [P49] | – | – | – | – | – | – | 64 µg/mL | 8 µg/mL | 8 | 8 µg/mL | 77 µg/mL | 100 µg/mL | 115 µg/mL | 40 µg/mL | 140 µg/mL | 200 µg/mL | 10 µg/mL | 64 µg/mL | 225 µg/mL | 32 | yeast (MIC or MFC) [8]: 50 µg/mL; WI38 LD50 (WI38): 135 µg/mL; MIC Cm-comb. (P. aeruginosa H374 [9]): 8 µg/mL; MIC Nal-comb. (P. aeruginosa H374 [9]): 2500 µg/mL; FIC Index (P. aeruginosa H374 [9]; [12]): 0.75; FIC Index (P. aeruginosa H374 [9]; [13]): 0.75; MIC Nal-comb. (P. aeruginosa): 624 µg/mL; FIC Index (P. aeruginosa H774): 1.25; CC50 at 24 h (in vitro [11]): 135 µg/mL
3 | LPKWKVFKKIEKVGRNIRNGIVKAGPAIAVLGEAKALG-NH2 [P306 (150)] | 32 | 16 | >128 | 8 | 16 | 16 | – | – | – | – | – | – | – | – | – | – | – | – | – | – | –
4 | FALALKALKKALKKLKKALKKAL-NH2 [P2 (2)] | 16 | 32 | – | 16 | – | 16 | – | – | – | – | – | – | – | – | – | – | – | – | – | – | –
5 | CC(C)C[C@H](NC(=O)[C@H](C)NC(=O)[C@H](CC(C)C)NC(=O)[C@H](C)NC(=O)[C@H](CC(C)C)NC(=O)[C@H](CCCCN)NC(=O)[C@H](C)NC(=O)[C@H](CC(C)C)NC(=O)[C@H](CCCCN)NC(=O)[C@H](CCCCN)NC(=O)[C@H](C)NC(=O)[C@H](CC(C)C)NC(=O)[C@H](CCCCN)NC(=O)[C@H](CCCCN)NC(=O)[C@H](CC(C)C)NC(=O)[C@H](CCCCN)NC(=O)[C@H](CCCCN)NC(=O)[C@H](C)NC(=O)[C@H](CC(C)C)NC(=O)[C@H](CCCCN)NC(=O)[C@H](CCCCN)NC(=O)[C@H](C)NC(=O)[C@@H](N)Cc1ccccc1)C(N)=O [P11 (4)] | 16 | 16 | – | 16 | – | 16 | – | – | – | – | – | – | – | – | – | – | – | – | – | – | –
6 | FAKLLAKLAKKAL-NH2 [P54, FAKLLAKLAKKAL-NH2] | – | – | – | – | – | – | 16 µg/mL | 8 µg/mL | 8 | 8 µg/mL | 90 µg/mL | – | 90 µg/mL | 60 µg/mL | 80 µg/mL | 50 µg/mL | 5 µg/mL | 64 µg/mL | 250 µg/mL | 64 | HeLaS3 LD50 (HeLaS3): 190 µg/mL; yeast (MIC or MFC) [8]: 50 µg/mL; WI38 LD50 (WI38): 97 µg/mL; MIC Cm-comb. (P. aeruginosa H374 [9]): 16 µg/mL; MIC Nal-comb. (P. aeruginosa H374 [9]): 5000 µg/mL; FIC Index (P. aeruginosa H374 [9]; [12]): 1.25; FIC Index (P. aeruginosa H374 [9]; [13]): 1.25; MIC Nal-comb. (P. aeruginosa): 624 µg/mL; FIC Index (P. aeruginosa H774): 1.25; CC50 at 24 h (in vitro [11]): 97 µg/mL
7 | FAKKLAKKLKKLAKKLAK-OH [P71 (47)] | 16 | 16 | 32 | 4 | 8 | 8 | – | – | – | – | – | – | – | – | – | – | – | – | – | – | –
8 | FALALKALKKALKKLKKALKKAL-NH2 [P2, reference compound] | – | – | – | – | – | – | 32 µg/mL | 8 µg/mL | 8 | 4 µg/mL | 44 µg/mL | 46 µg/mL | 128 µg/mL | 23 µg/mL | 140 µg/mL | 100 µg/mL | 25 µg/mL | 128 µg/mL | 10 µg/mL | 32 | HeLaS3 LD50 (HeLaS3): 50 µg/mL; yeast (MIC or MFC) [8]: 25 µg/mL; WI38 LD50 (WI38): 66 µg/mL; CC50 at 24 h (in vitro [11]): 66 µg/mL
9 | CC(C)C[C@H](NC(=O)[C@H](C)NC(=O)[C@H](CC(C)C)NC(=O)[C@H](CCCCN)NC(=O)[C@H](C)NC(=O)[C@H](CC(C)C)NC(=O)[C@H](CCCCN)NC(=O)[C@H](CCCCN)NC(=O)[C@H](C)NC(=O)[C@H](CC(C)C)NC(=O)[C@H](CCCCN)NC(=O)[C@H](C)NC(=O)[C@H](CC(C)C)NC(=O)[C@H](CCCCN)NC(=O)[C@H](CCCCN)NC(=O)[C@H](C)NC(=O)[C@@H](N)Cc1ccccc1)C(=O)O [P61 (41)] | 8 | 16 | 32 | 4 | 8 | 8 | – | – | – | – | – | – | – | – | – | – | – | – | – | – | –
10 | FAKKLAKKLKKLAKLALAK-NH2 [P41 (23)] | 8 | 8 | 32 | 4 | 8 | 8 | – | – | – | – | – | – | – | – | – | – | – | – | – | – | –
11 | CC[C@H](C)[C@H](N)C(=O)N[C@@H](CC(C)C)C(=O)N1CCC[C@H]1C(=O)N[C@@H](Cc1c[nH]c2ccccc12)C(=O)N[C@@H](CCCCN)C(=O)N[C@@H](Cc1c[nH]c2ccccc12)C(=O)N1CCC[C@H]1C(=O)N[C@@H](Cc1c[nH]c2ccccc12)C(=O)N[C@@H](Cc1c[nH]c2ccccc12)C(=O)N1CCC[C@H]1C(=O)N[C@@H](Cc1c[nH]c2ccccc12)C(=O)N[C@@H](CCCNC(=N)N)C(=O)N[C@@H](CCCNC(=N)N)C(N)=O [P63, reference compound] | – | – | – | – | – | – | 32 µg/mL | 16 µg/mL | 8 | 8 µg/mL | 290 µg/mL | 345 µg/mL | 200 µg/mL | 64 µg/mL | 270 µg/mL | – | – | 128 µg/mL | 375 µg/mL | 16 | HeLaS3 LD50 (HeLaS3): 345 µg/mL
12 | FAKKLKKLAKLAKKL-NH2 [P46] | – | – | – | – | – | – | 64 µg/mL | 8 µg/mL | 16 | 8 µg/mL | 280 µg/mL | 160 µg/mL | 150 µg/mL | 300 µg/mL | 290 µg/mL | 5 µg/mL | 10 µg/mL | 64 µg/mL | 900 µg/mL | 128 | E. coli UB1005 MIC (E. coli UB1005): 8 and 4; S. typhimurium 14028S MIC (S. typhimurium 14028S): 16 and 8; HeLaS3 LD50 (HeLaS3): 280 µg/mL; yeast (MIC or MFC) [8]: 50 µg/mL; WI38 LD50 (WI38): 200 µg/mL; MIC Cm-comb. (P. aeruginosa H374 [9]): 8 µg/mL; MIC Nal-comb. (P. aeruginosa H374 [9]): 2500 µg/mL; FIC Index (P. aeruginosa H374 [9]; [12]): 0.75; FIC Index (P. aeruginosa H374 [9]; [13]): 0.75; MIC Nal-comb. (P. aeruginosa): 624 µg/mL; FIC Index (P. aeruginosa H774): 1.25; P. aeruginosa H374 MIC (P. aeruginosa H374 [4]; mean of three, 16 to 20 hours at 35° C.): 4 µg/mL; CC50 at 24 h (in vitro [11]): 200 µg/mL
